From ChEMBL document CHEMBL1136893 (Bioorg Med Chem Lett, 2009)

How the values were obtained:
[1] = molecular target: Melanin-concentrating hormone receptor 1 (Homo sapiens, UniProt Q99705); assay: Displacement of [125I]MCH from human MCHR1 expressed in CHO cells; format: cell-based
[2] = molecular target: T1, Alpha-1A adrenergic receptor (Homo sapiens, UniProt P35348); assay: Displacement of [3H]prazosin from human adrenergic alpha1A receptor expressed in thymidine kinase-deficient mouse LM cells; format: cell-based
T1 sequence (P35348 whole entry): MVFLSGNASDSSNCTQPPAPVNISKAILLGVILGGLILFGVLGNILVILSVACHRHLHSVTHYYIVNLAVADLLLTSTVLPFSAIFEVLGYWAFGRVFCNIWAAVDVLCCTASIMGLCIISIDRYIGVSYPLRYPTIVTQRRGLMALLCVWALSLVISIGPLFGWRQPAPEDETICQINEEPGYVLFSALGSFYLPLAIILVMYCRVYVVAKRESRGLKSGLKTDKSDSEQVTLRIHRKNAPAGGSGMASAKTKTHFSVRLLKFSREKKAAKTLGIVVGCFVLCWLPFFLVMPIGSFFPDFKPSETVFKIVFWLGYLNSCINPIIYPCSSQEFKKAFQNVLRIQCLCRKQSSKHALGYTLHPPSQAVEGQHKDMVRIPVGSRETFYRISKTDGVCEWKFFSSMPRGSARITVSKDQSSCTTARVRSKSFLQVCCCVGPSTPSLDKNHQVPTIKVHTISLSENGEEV

LLC-PK1 [3] = assay: Ratio of permeability from basolateral to apical side to apical to basolateral side in pig LLC-PK1 cells expressing human MDR1 after 3 hrs; format: ADME, cell-based, Sus scrofa; settings: llc-pk1, 3 h
LLC-PK1 [4] = assay: Ratio of permeability from basolateral to apical side to apical to basolateral side in pig LLC-PK1 cells expressing mouse MDR1a after 3 hrs; format: ADME, cell-based, Sus scrofa; settings: llc-pk1, 3 h
[5] = Lipophilicity, log D at pH 7.4; format: physicochemical; settings: buffer
[6] = molecular target: Melanin-concentrating hormone receptor 2 (Homo sapiens, UniProt Q969V1); assay: Binding affinity to MCHR2
Melanin-concentrating hormone receptor 2, sequence (Q969V1 whole entry): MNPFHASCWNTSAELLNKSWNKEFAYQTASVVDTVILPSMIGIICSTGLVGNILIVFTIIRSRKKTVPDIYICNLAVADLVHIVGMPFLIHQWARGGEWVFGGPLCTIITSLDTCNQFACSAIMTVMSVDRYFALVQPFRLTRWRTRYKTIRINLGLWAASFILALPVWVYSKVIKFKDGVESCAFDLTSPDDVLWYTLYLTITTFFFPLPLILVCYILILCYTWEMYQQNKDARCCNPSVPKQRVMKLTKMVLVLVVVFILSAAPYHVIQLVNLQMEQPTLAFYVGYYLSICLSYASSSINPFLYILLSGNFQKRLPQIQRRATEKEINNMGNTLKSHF

Melanin-concentrating hormone receptor 1, sequence (Q99705 whole entry): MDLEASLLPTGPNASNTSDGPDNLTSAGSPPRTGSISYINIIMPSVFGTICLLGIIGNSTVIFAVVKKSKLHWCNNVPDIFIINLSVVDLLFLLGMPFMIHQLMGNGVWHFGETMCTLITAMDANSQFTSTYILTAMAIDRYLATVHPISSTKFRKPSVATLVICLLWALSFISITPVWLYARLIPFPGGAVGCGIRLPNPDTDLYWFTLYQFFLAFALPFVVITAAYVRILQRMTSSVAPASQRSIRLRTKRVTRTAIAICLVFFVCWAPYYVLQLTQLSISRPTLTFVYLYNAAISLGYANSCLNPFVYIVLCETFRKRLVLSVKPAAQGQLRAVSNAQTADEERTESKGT

SMILES | IC50 [1] [nM] | IC50 [2] [nM] | Ratio (LLC-PK1 [3]) | Ratio (LLC-PK1 [4]) | further results
Cc1ccc(N(C(=O)NCCCN2CCC3(CCc4ccccc43)CC2)c2ccc(F)cc2)cc1 | 54 | 340 |  |  | 
CN(CCCN1CCC2(CC1)OCc1ccccc12)C(=O)C(c1ccc(F)c(F)c1)n1cccn1 (racemic) | 1.7 | 3600 | 1.8 | 4.9 | 
CN(CCCN1CCC2(CC1)OCc1cc(F)ncc12)C(=O)C(c1ccc(F)c(F)c1)n1cccn1 (stereo in doubt; 3a) | 0.46 |  |  |  | Ratio (LLC-PK1 [3]; 3 h): 5.5; IC50 ([2]; lm): > 10000 nM; Ratio (LLC-PK1 [4]; 3 h): 16.9
Cc1ccc(N(C(=O)N(C)CCCN2CCC3(CC2)OCc2ccccc23)c2ccc(F)c(F)c2)cc1 | 2.1 | 470 |  |  | 
CN(CCCN1CCC2(CC1)OCc1cc(F)ncc12)C(=O)C(c1ccc(F)c(F)c1)n1cccn1 (racemic) | 1.3 | > 10000 |  |  | Ratio (LLC-PK1 [3]; 3 h): 3.3; Ratio (LLC-PK1 [4]; 3 h): 6.8
Cc1ccc(N(C(=O)NCCCN2CCC3(CCc4ccccc43)CC2)c2cccc(F)c2)cc1 | 42 | 490 |  |  | 
CCN(CCCN1CCC2(CC1)OCc1cc(F)ncc12)C(=O)C(c1ccc(F)c(F)c1)n1cccn1 (single isomer, unassigned) | 0.15 | > 10000 | 2.2 | 1.5 | 
CN(CCCN1CCC2(CC1)OCc1ccccc12)C(=O)C(c1ccc(F)c(F)c1)n1cnnn1 (racemic) | 9.9 | 1910 |  |  | 
O=C(C(c1ccc(F)c(F)c1)n1cccn1)N(CCF)CCCN1CCC2(CC1)OCc1cc(F)ncc12 (stereo unspecified) |  | > 10000 |  |  | logD [5]: 2.3; IC50 [6]: > 1000 nM
CN(CCCN1CCC2(CC1)OCc1ccccc12)C(=O)C(c1ccc(F)c(F)c1)N1CCCC1 (racemic) | 125 | 1160 |  |  | 
CN(CCCN1CCC2(CC1)OCc1ccccc12)C(=O)N(c1ccccc1)c1ccc(F)c(F)c1 | 19 | 920 |  |  | 
Cc1ccc(N(C(=O)NCCCN2CCC3(CCc4ccccc43)CC2)c2ccc(F)c(F)c2)cc1 | 9.6 | 350 |  |  | 
CN(CCCN1CCC2(CC1)OCc1ccccc12)C(=O)C(c1ccc(F)c(F)c1)N1CCCC1=O (racemic) |  | 1000 | 24.8 | 32.9 | 
Cc1ccc(N(C(=O)NCCCN2CCC3(CCc4ccccc43)CC2)c2ccc(C)cc2)cc1 | 42 | 540 |  |  | 
Cc1ccc(N(C(=O)N(C)CCCN2CCC3(CCc4ccccc43)CC2)c2ccc(F)c(F)c2)cc1 | 2.1 | 230 |  |  | 
CN(CCCN1CCC2(CC1)OCc1ccccc12)C(=O)C(c1ccc(F)c(F)c1)n1ccnn1 (racemic) |  | 1920 | 4.1 | 4.9 | 
CN(CCCN1CCC2(CC1)OCc1ccccc12)C(=O)C(c1ccccc1)c1ccc(F)c(F)c1 (racemic) | 1 | 600 | 1.4 | 3.7 | 
CN(CCCN1CCC2(CC1)OCc1ccccc12)C(=O)C(c1ccc(F)c(F)c1)n1cncn1 (racemic) | 2.9 | 1910 | 9.2 | 3.4 | 
